According to patent US12150995B2, “IRAK degraders and uses thereof” (Kymera Therapeutics, Inc., priority 2020, dated 2024):

The compounds below were run against T1, IRAK4 (Homo sapiens, UniProt Q9NWZ3) (assay: IRAK4 MSD Degradation in OCI-LY10). Conditions: OCI-LY10 cells, Meso Scale Discovery, incubated 4 to 24 hours.
T1 construct: endogenous in cells; host or cells: OCI-LY10
T1 sequence (Q9NWZ3 1-460): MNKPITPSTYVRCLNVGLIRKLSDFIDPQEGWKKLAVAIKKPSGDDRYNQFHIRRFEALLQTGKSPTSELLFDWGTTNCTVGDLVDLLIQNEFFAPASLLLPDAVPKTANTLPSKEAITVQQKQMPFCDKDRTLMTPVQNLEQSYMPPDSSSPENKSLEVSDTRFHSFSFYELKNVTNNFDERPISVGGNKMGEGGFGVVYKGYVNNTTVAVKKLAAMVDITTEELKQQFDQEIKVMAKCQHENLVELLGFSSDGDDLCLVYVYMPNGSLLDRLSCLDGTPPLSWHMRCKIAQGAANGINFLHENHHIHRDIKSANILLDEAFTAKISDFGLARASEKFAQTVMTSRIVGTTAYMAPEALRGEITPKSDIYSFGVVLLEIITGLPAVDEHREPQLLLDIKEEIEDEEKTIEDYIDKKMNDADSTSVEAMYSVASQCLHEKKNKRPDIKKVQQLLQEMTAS
Type: cell-based
In short: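 IRAK4 degradation was quantified by Meso Scale electrochemiluminescence (anti-IRAK4 capture and detection antibodies) in lysates of treated OCI-LY10 cells. Compounds were dosed at 8 concentrations (1:3 dilutions, top 1 to 10 μM) for 4 to 24 h; DC50 derived by three-parameter logistic fitting.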

Row | Structure (SMILES) | DC50 [nM]
1 | Cn1c(=O)n(C2CCC(=O)NC2=O)c2ccc(Cl)c(C3CCN(C[C@H]4C[C@H](n5cc6cc(NC(=O)c7cccc(C(F)(F)F)n7)ncc6n5)C4)CC3)c21 (stereo partly drawn) [I-149] | 100 to 200
2 | COc1cc2nn([C@H]3CC[C@@H](CN4CCN(CC#Cc5cccc6c5n(C)c(=O)n6C5CCC(=O)NC5=O)CC4)CC3)cc2cc1NC(=O)c1cccc(C(F)(F)F)n1 (stereo partly drawn) [I-327] | < 10
3 | O=C1CCN(c2cncc3c(C4CCN(C[C@H]5CC[C@H](n6cc7cc(NC(=O)c8cccc(C(F)(F)F)n8)ccc7n6)CC5)CC4)cccc23)C(=O)N1 [I-68] | 10 to 50
4 | Cn1c(=O)n(C2CCC(=O)NC2=O)c2cccc(C3CCN(C[C@H]4CC[C@H](n5cc6cc(NC(=O)c7ncc(Cl)s7)ccc6n5)CC4)CC3)c21 (stereo partly drawn) [I-247] | > 200
5 | CN(CCCCNc1cccc2c1C(=O)N(C1CCC(=O)NC1=O)C2=O)C[C@H]1CC[C@H](c2nc3cc(C(C)(C)O)c(NC(=O)c4cccc(C(F)(F)F)n4)cc3s2)CC1 (stereo partly drawn) [I-447] | < 10
6 | O=C1CCN(c2cncc3cc(N4CCN(C[C@H]5CC[C@H](n6cc7cc(NC(=O)c8cccc(C(F)(F)F)n8)ccc7n6)CC5)CC4)ccc23)C(=O)N1 [I-161] | > 200
7 | C[C@@H]1CN(c2cccc3c2n(C)c(=O)n3C2CCC(=O)NC2=O)CCN1C[C@H]1CC[C@H](n2cc3cc(NC(=O)c4cccc(C(F)(F)F)n4)ccc3n2)CC1 (stereo partly drawn) [I-163] | < 10
8 | COc1cc2nn([C@H]3CC[C@H](CN(C)C4CCN(c5cc(Cl)cc6c5n(C)c(=O)n6C5CCC(=O)NC5=O)CC4)CC3)cc2cc1NC(=O)c1cccc(C(F)(F)F)n1 (stereo partly drawn) [I-54] | < 10
9 | COc1cc2nn([C@H]3C[C@H](CN(C)C4CCN(c5cccc6c5n(C)c(=O)n6C5CCC(=O)NC5=O)CC4)C3)cc2cc1NC(=O)c1cccc(C(F)(F)F)n1 (stereo partly drawn) [I-31, N-[2-[3-[[[1-[1-(2,6-dioxo-3-piperidyl)-3-methyl-2-oxo-benzimidazol-4-yl]-4-piperidyl]-methyl-amino]methyl]cyclobutyl]-6-methoxy-indazol-5-yl]-6-(trifluoromethyl)pyridine-2-carboxamide] | < 10
10 | CN(CCNc1cccc2c1C(=O)N(C1CCC(=O)NC1=O)C2=O)C[C@H]1CC[C@H](c2nc3cc(C(C)(C)O)c(NC(=O)c4cccc(C(F)(F)F)n4)cc3s2)CC1 (stereo partly drawn) [I-492] | 10 to 50
11 | CC(C)Nc1cc(-n2ccc3cc(F)cnc32)ncc1C(=O)N[C@H]1CC[C@H](CN2CCN(c3cccc4c3n(C)c(=O)n4C3CCC(=O)NC3=O)CC2)CC1 (stereo partly drawn) [I-290] | 10 to 50
12 | COc1cc2nn([C@H]3CC[C@H](CN4CCC(c5c(C)ccc6c5n(C)c(=O)n6C5CCC(=O)NC5=O)CC4)CC3)cc2cc1NC(=O)c1cccc(C(F)(F)F)n1 (stereo partly drawn) [I-39] | < 10
13 | Cn1c(=O)n(C2CCC(=O)NC2=O)c2cccc(N3CCN(C[C@H]4CC[C@H](n5cc6cc(NC(=O)c7cccc(C(F)(F)F)n7)c(N7C[C@H]8C[C@@H]7CO8)cc6n5)CC4)CC3)c21 (stereo partly drawn) [I-384] | < 10
14 | CN(CCCNc1cccc2c1C(=O)N(C1CCC(=O)NC1=O)C2=O)C[C@H]1CC[C@H](c2nc3cc(C(C)(C)O)c(NC(=O)c4cncc(Cl)c4)cc3s2)CC1 (stereo partly drawn) [I-476] | > 200
15 | CC(C)Nc1cc(-n2ccc3cc(C#N)cnc32)ncc1-c1cn([C@H]2CC[C@H](CN3CCC(c4cccc5c(N6CCC(=O)NC6=O)cncc45)CC3)CC2)nn1 [I-329] | < 10
16 | Cn1c(=O)n(C2CCC(=O)NC2=O)c2ccc(F)c(C3CCN(C[C@H]4CC[C@H](n5cc6cc(NC(=O)c7cccc(C(F)(F)F)n7)ncc6n5)CC4)CC3)c21 (stereo partly drawn) [I-82] | < 10
17 | COc1cc2nn([C@H]3CC[C@H](CN4CCC(c5cccc6c5n(C)c(=O)n6C5CCC(=O)NC5=O)CC4)CC3)cc2cc1NC(=O)c1ccccc1F (stereo partly drawn) [I-174] | < 10
18 | COc1cc2nn([C@H]3CC[C@H](CN4CC=C(c5ccc6c(c5)n(C)c(=O)n6C5CCC(=O)NC5=O)C4)CC3)cc2cc1NC(=O)c1cccc(C(F)(F)F)n1 (stereo partly drawn) [I-366] | < 10
19 | CC(C)(O)c1cc2nc([C@H]3CC[C@H](C(=O)N4CC5(CC(CCNc6cccc7c6C(=O)N(C6CCC(=O)NC6=O)C7=O)C5)C4)CC3)sc2cc1NC(=O)c1cccc(C#N)n1 (stereo partly drawn) [I-436] | 50 to 100
20 | CC(C)(O)c1cc2nc([C@H]3CC[C@H](CN4CCN(CCNc5cccc6c5C(=O)N(C5CCC(=O)NC5=O)C6=O)CC4)CC3)sc2cc1NC(=O)c1cncc(C#N)c1 (stereo partly drawn) [I-453] | 100 to 200
21 | Cn1c(=O)n(C2CCC(=O)NC2=O)c2ccc(F)c(C3CCN(C[C@H]4CC[C@H](n5cc6cc(NC(=O)c7cccc(C(F)(F)F)n7)ccc6n5)CC4)CC3)c21 (stereo partly drawn) [I-74] | 10 to 50
22 | CC(C)(N)c1cc2nn([C@H]3CC[C@H](CN4C5CCC4CN(c4cccc6c(N7CCC(=O)NC7=O)cncc46)C5)CC3)cc2cc1NC(=O)c1cccc(C(F)(F)F)n1 [I-227] | < 10
23 | Cn1c(=O)n(C2CCC(=O)NC2=O)c2cccc(N3CC4CCC(C3)N4C[C@H]3CC[C@H](n4cc5cc(NC(=O)c6cccc(C(F)(F)F)n6)ccc5n4)CC3)c21 (stereo partly drawn) [I-164] | < 10

Row | Structure (SMILES) | DC50 [nM]
24 | COc1cc2nn([C@H]3CC[C@H](CN4CCC(c5cccc6c(N7CCC(=O)NC7=O)cncc56)CC4)CC3)cc2cc1NC(=O)c1cncc(C#N)c1 [I-121] | 10 to 50
25 | C[C@@H]1CN(c2cccc3c2n(C)c(=O)n3C2CCC(=O)NC2=O)CCN1C[C@H]1CC[C@H](n2cc3cc(NC(=O)c4cccc(C(F)(F)F)n4)c(C(C)(C)O)cc3n2)CC1 (stereo partly drawn) [I-226] | < 10
26 | CCc1cc2nn([C@H]3CC[C@H](CN4CCN(c5cccc6c5n(C)c(=O)n6C5CCC(=O)NC5=O)CC4)CC3)cc2cc1NC(=O)c1cccc(C(F)(F)F)n1 (stereo partly drawn) [I-378] | < 10
27 | CN(C[C@H]1CC[C@H](n2cc3cc(NC(=O)c4cccc(C(F)(F)F)n4)ccc3n2)CC1)C1CCN(c2ccc3c(N4CCC(=O)NC4=O)cncc3c2)CC1 [I-319] | 10 to 50
28 | Cn1c(=O)n(C2CCC(=O)NC2=O)c2cccc(N3CCN(C[C@H]4CC[C@H](n5cc6cc(NC(=O)c7cncc(C#N)c7)c(OC(F)(F)F)cc6n5)CC4)CC3)c21 (stereo partly drawn) [I-160] | > 200
29 | Cn1c(=O)n(C2CCC(=O)NC2=O)c2cc(F)cc(C3CCN(C[C@H]4CC[C@H](n5cc6cc(NC(=O)c7cccc(C(F)(F)F)n7)c(F)cc6n5)CC4)CC3)c21 (stereo partly drawn) [I-26] | < 10
30 | Cn1c(=O)n(C2CCC(=O)NC2=O)c2cccc(C3CCN(C[C@H]4CC[C@H](n5cc6cc(NC(=O)c7cccc(C(F)(F)F)n7)ccc6n5)CC4)CC3)c21 (stereo partly drawn) [I-57] | < 10
31 | Cc1nc(C(=O)Nc2cc3cn([C@H]4CC[C@H](CN5CCC(c6cccc7c6n(C)c(=O)n7C6CCC(=O)N(C)C6=O)CC5)CC4)nc3cc2C(C)(C)O)co1 (stereo partly drawn) [I-60] | > 200
32 | COc1cc2nn([C@H]3C[C@H](CN4CCC(c5c(F)ccc6c5n(C)c(=O)n6C5CCC(=O)NC5=O)CC4)C3)cc2cc1NC(=O)c1cccc(C(F)(F)F)n1 (stereo partly drawn) [I-89] | 10 to 50
33 | Cc1cccc(C(=O)Nc2cc3sc([C@H]4CC[C@H](CN(C)CCCCNc5cccc6c5C(=O)N(C5CCC(=O)NC5=O)C6=O)CC4)nc3cc2C(C)(C)O)n1 (stereo partly drawn) [I-444] | 10 to 50
34 | Cc1cccc(C(=O)Nc2cc3sc([C@H]4CC[C@H](CN5C[C@@H]6C[C@H]5CN6CCCNc5cccc6c5C(=O)N(C5CCC(=O)NC5=O)C6=O)CC4)nc3cc2C(C)(C)O)n1 (stereo partly drawn) [I-439] | 10 to 50
35 | COc1cc2nn([C@H]3CC[C@H](CN4CCN(c5cccc6c5n(C)c(=O)n6C5CCC(=O)NC5=O)CC4(C)C)CC3)cc2cc1NC(=O)c1cccc(C(F)(F)F)n1 (stereo partly drawn) [I-306] | 10 to 50
36 | COc1cc2nn([C@H]3CC[C@H](CN4CC=C(c5cccc6c5n(C)c(=O)n6C5CCC(=O)NC5=O)C4)CC3)cc2cc1NC(=O)c1cccc(C(F)(F)F)n1 (stereo partly drawn) [I-266] | < 10
37 | COc1cc2nn([C@H]3CC[C@H](CN4CCN(c5c(OC)ccc6c5n(C)c(=O)n6C5CCC(=O)NC5=O)CC4)CC3)cc2cc1NC(=O)c1cccc(C(F)(F)F)n1 (stereo partly drawn) [I-364] | < 10
38 | O=C1CCN(c2cncc3c(C4CCN(C[C@H]5CC[C@H](c6nc7cnc(NC(=O)c8cccc(C(F)(F)F)n8)cc7s6)CC5)CC4)cccc23)C(=O)N1 [I-171] | 10 to 50
39 | COc1ccc2c(c1C1CCN(C[C@H]3C[C@H](n4cc5cc(NC(=O)c6cccc(C(F)(F)F)n6)ccc5n4)C3)CC1)n(C)c(=O)n2C1CCC(=O)NC1=O (stereo partly drawn) [I-152] | 10 to 50
40 | CN(C[C@H]1CC[C@H](n2cc3cc(NC(=O)c4cncc(C#N)c4)c(N4C[C@H]5C[C@@H]4CO5)cc3n2)CC1)C1CCN(c2cccc3c2n(C)c(=O)n3C2CCC(=O)NC2=O)CC1 (stereo partly drawn) [I-217] | > 200
41 | COc1cc2nn([C@H]3CC[C@H](CN4CC=C(c5cccc6c(N7CCC(=O)NC7=O)cncc56)CC4)CC3)cc2cc1NC(=O)c1cccc(C(F)(F)F)n1 [I-357] | < 10
42 | Cn1c(=O)n(C2CCC(=O)NC2=O)c2cc(Cl)cc(C3CCN(C[C@H]4CC[C@H](n5cc6cc(NC(=O)c7cccc(C(F)(F)F)n7)c(F)cc6n5)CC4)CC3)c21 (stereo partly drawn) [I-72] | 10 to 50
43 | COc1cc(NC(=O)c2cccc(C(F)(F)F)n2)cc2cn([C@H]3CC[C@H](CN4CCN(c5cccc6c(N7CCC(=O)NC7=O)cncc56)CC4)CC3)nc12 [I-222] | < 10
44 | CC(C)(O)c1cc2nn([C@H]3CC[C@H](CN4C[C@H]5C[C@@H]4CN5c4cccc5c(N6CCC(=O)NC6=O)cncc45)CC3)cc2cc1NC(=O)c1cccc(C(F)(F)F)n1 [I-229] | < 10
45 | Cn1c(=O)n(C2CCC(=O)NC2=O)c2cccc(C3C[C@H]4CC[C@@H](C3)N4C[C@H]3CC[C@H](n4cc5cc(NC(=O)c6cccc(C(F)(F)F)n6)ccc5n4)CC3)c21 (single isomer, unassigned) [I-250] | 10 to 50
